Assay [1] relates to non-small-cell lung cancer. The settings on record: with paclitaxel and carboplatin, non-small-cell lung cancer (Lara et al. 2011); cited from earlier work.
Another assay addresses hSTING^R232 (aa 140-379) (Homo sapiens, UniProt Q86WV6, H232R). Briefly: ITC binding, hSTING^R232 (wt hSTING). The following applies: wild-type (wt) hSTING protein.
In the next assay the test system is hSTING^group3. Briefly: ITC binding, hSTING^group3. The following applies: isolated group3 substitutions.
For another assay, the system named is hSTING^group4. Nature of the assay: ITC binding, hSTING^group4. The following applies: isolated group4 substitutions.
Assay [2] deals with T1, hSTING^G230I (Homo sapiens, UniProt Q86WV6, G230I/H232R). Briefly: Real-time PCR in STING^Gt/Gt BMDCs transduced with hSTING^G230I. It is filed as cell-based. The settings on record: 50 μg/ml DMXAA, 3 hours. How it is done:
(§1) The protocol for generation of bone marrow-derived dendritic cells was described before (Dai et al., 2014). […] BMDCs (1×10^6 cells/well) were infected with retroviruses expressing hSTING (wt and various substitution mutants).
(§2) hSTING cDNAs were cloned into pQCXIP-HA vector. In vitro packaging system was used to generate retroviruses according to protocol (Clontech). BMDCs (1×10^6 cells/well) were seeded into 6-well plates and infected with retroviruses. […] CXCL10 protein level was determined by ELISA.
Background: Quantitative PCR measures a nucleic acid by following its amplification.

The test system of the next assay is hSTING^group134. Briefly: IFN-β luciferase reporter, hSTING^group134. In kind it is cell-based, human. The settings on record: 0.18 mM DMXAA; compared with hSTING^group1234. As to the method:
(§3) Luciferase assays for DMXAA experiments were performed as described above. Briefly, 3×10^4 293T cells were reverse-transfected with STING constructs (5 ng per 96-well) and reporter constructs (50 ng pIFNβ-Gluc, 10 ng pLenti-EF1-Fluc for normalization, 35 ng pMAX-empty as stuffer, delivered with TransIT-LT1, MirusBio, Madison Wis.). […] 12 hours after stimulation with STING-ligands, cells were resuspended in passive lysis buffer and luciferase activity was determined using the respective substrates Coelenterazine and D-Luciferin (PJK, Kleinblittersdorf, Germany). Gaussia Luciferase values were then normalized to constitutive Firefly Luciferase values (resulting in Relative Light Units, RLU).
(§4) Full-length hSTING (wt and substitutions) and mSTING (wt) constructs were used for this cellular assay, and were expressed at moderate levels allowing ligand-dependent activation of IFN-β promoter.
(In general: In a reporter assay the amount or activity of a reporter protein is the signal.)

The target of a further assay is hSTING^R232/V162 (Homo sapiens, UniProt Q86WV6, H232R/S162V). Briefly: ITC binding, hSTING^R232/V162. The following applies: Protein: 0.08 mM; Ligands: 0.8 mM; 180 mM NaCl, pH 7.5; 25° C.
The next assay concerns the target T2, hSTING G166S (Homo sapiens, UniProt Q86WV6, G166S/H232R).
T2 construct: Full-length hSTING (wt and substitutions) and mSTING (wt) constructs were used for this cellular assay; expressed in transfected cells; host or cells: 293T
Briefly: IFN-β luciferase reporter, hSTING G166S. In kind it is cell-based. The settings on record: 0.18 mM DMXAA, 12 hours. As to the method:
as §3

Another assay has as its target T3, hSTING Q266L (Homo sapiens, UniProt Q86WV6, H232R/Q266L).
T3 construct: Full-length hSTING (wt and substitutions) and mSTING (wt) constructs were used for this cellular assay; expressed in transfected cells; host or cells: 293T
Briefly: IFN-β luciferase reporter, hSTING Q266L. In kind it is cell-based. The following applies: 0.18 mM DMXAA, 12 hours. How it is done: as §3

A further assay deals with hSTING^H232/A162 (Homo sapiens, UniProt Q86WV6, S162A). Briefly: ITC binding, hSTING^H232 mutant S162A. The settings on record: DMXAA; Protein: 0.08 mM; Ligands: 0.8 mM; 180 mM NaCl, pH 7.5; 25° C.
The subject of assay [3] is hSTING S162A (hSTING^H232 and hSTING^R232 background). In kind it is cell-based, human. The settings on record: DMXAA in medium, 12 h; hSTING^H232 and hSTING^R232 background.
Another assay has as its target hSTING^H232/V162 (Homo sapiens, UniProt Q86WV6, S162V). Nature of the assay: ITC binding, hSTING^H232/V162. The settings on record: Protein: 0.08 mM; Ligands: 0.8 mM; 180 mM NaCl, pH 7.5; 25° C.
The target in the next assay is T4, hSTING Q266V (Homo sapiens, UniProt Q86WV6, H232R/Q266V).
T4 construct: Full-length hSTING (wt and substitutions) and mSTING (wt) constructs were used for this cellular assay; expressed in transfected cells; host or cells: 293T
Briefly: IFN-β luciferase reporter, hSTING Q266V. In kind it is cell-based. The settings on record: 0.18 mM DMXAA, 12 hours. As to the method: as §3

The next assay deals with T5, wt hSTING (Homo sapiens, UniProt Q86WV6, H232R).
T5 construct: expressed in transfected cells; host or cells: bone marrow-derived dendritic cells of STING^Gt/Gt mice, retroviral transduction (pQCXIP-HA)
Briefly: Real-time PCR in STING^Gt/Gt BMDCs transduced with wt hSTING. It is filed as cell-based. The following applies: 50 μg/ml DMXAA, 3 hours. As to the method: as §1, §2

For assay [4], the target named is T1, hSTING^G230I. Nature of the assay: IFN-β luciferase reporter, hSTING^G230I. It is filed as cell-based. Details: Full-length hSTING (wt and substitutions) and mSTING (wt) constructs were used for this cellular assay; expressed in transfected cells; host or cells: 293T. The settings on record: ascending concentrations of DMXAA, 12 hours. How it is done: as §3
In the next assay the target is hSTING^S162A/Q266I (Homo sapiens, UniProt Q86WV6, H232R/Q266I/S162A). Nature of the assay: Real-time PCR in STING^Gt/Gt BMDCs transduced with hSTING^S162A/Q266I. In kind it is cell-based. Details: expressed in transfected cells; host or cells: bone marrow-derived dendritic cells of STING^Gt/Gt mice, retroviral transduction (pQCXIP-HA). The settings on record: 50 μg/ml DMXAA, 3 hours. As to the method: as §1, §2

The next assay addresses T6, hSTING^group2 (Homo sapiens, UniProt Q86WV6, D237N/G230I/I244V/K224M/L222R/T229N).
T6 construct: Full-length hSTING (wt and substitutions) and mSTING (wt) constructs were used for this cellular assay; expressed in transfected cells; host or cells: 293T
Briefly: IFN-β luciferase reporter, hSTING^group2. It is filed as cell-based. The following applies: 0.18 mM DMXAA (50 μg/ml), 12 hours. As to the method: as §3, §4

Sequence of hSTING^R232/V162 (Q86WV6 140-379 S162V/H232R): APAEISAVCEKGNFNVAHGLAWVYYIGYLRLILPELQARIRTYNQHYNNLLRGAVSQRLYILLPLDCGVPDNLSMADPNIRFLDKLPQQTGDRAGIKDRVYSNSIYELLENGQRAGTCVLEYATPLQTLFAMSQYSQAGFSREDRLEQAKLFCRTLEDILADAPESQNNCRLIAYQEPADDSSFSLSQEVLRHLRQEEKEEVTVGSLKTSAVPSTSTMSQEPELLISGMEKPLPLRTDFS
Sequence of hSTING^H232/V162 (Q86WV6 140-379 S162V): as the sequence (Q86WV6 140-379 S162V/H232R) above, with R93H counted along it
Sequence of hSTING^H232/A162 (Q86WV6 140-379 S162A): as the sequence (Q86WV6 140-379 S162V/H232R) above, with V23A, R93H counted along it
T1 sequence (Q86WV6 whole entry G230I/H232R): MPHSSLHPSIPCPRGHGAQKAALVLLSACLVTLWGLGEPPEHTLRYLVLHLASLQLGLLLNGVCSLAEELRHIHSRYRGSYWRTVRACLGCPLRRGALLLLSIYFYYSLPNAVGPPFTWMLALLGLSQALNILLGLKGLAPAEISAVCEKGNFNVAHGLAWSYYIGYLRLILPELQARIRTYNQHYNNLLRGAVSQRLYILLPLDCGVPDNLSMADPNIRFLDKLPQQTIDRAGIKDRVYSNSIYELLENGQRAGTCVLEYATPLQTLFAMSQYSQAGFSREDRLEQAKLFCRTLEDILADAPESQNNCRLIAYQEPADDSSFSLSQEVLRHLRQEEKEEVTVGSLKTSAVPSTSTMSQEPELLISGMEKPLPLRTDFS
T5 sequence (Q86WV6 whole entry H232R): as the sequence (Q86WV6 whole entry G230I/H232R) above, with I230G counted along it
Sequence of hSTING^R232 (aa 140-379) (Q86WV6 140-379 H232R): as the sequence (Q86WV6 140-379 S162V/H232R) above, with V23S counted along it
T3 sequence (Q86WV6 whole entry H232R/Q266L): as the sequence (Q86WV6 whole entry G230I/H232R) above, with I230G, Q266L counted along it
T6 sequence (Q86WV6 whole entry L222R/K224M/T229N/G230I/H232R/D237N/I244V): as the sequence (Q86WV6 whole entry G230I/H232R) above, with L222R, K224M, T229N, D237N, I244V counted along it
T2 sequence (Q86WV6 whole entry G166S/H232R): as the sequence (Q86WV6 whole entry G230I/H232R) above, with G166S, I230G counted along it
Sequence of hSTING^S162A/Q266I (Q86WV6 whole entry S162A/H232R/Q266I): as the sequence (Q86WV6 whole entry G230I/H232R) above, with S162A, I230G, Q266I counted along it
T4 sequence (Q86WV6 whole entry H232R/Q266V): as the sequence (Q86WV6 whole entry G230I/H232R) above, with I230G, Q266V counted along it

For `Cc1ccc2c(=O)c3cccc(CC(=O)O)c3oc2c1C` [DMXAA, 5,6-dimethylxanthenone-4-acetic acid], the “outcome of human phase III trials” value in assay [1] is reported as “failed”. The “binding to DMXAA (ITC)” value at hSTING^R232 (aa 140-379), in the assay on hSTING^group3 and with hSTING^group4 was “no detectable binding” each time. The “increases in IFN-β mRNA levels” value on hSTING^G230I [2] came to 2.6 fold; on hSTING^S162A/Q266I it was 3.1 fold. In addition, the “IFN-β luciferase reporter response to DMXAA” value was “strongly diminished DMXAA activation” in the assay on hSTING^group134 and “showed responsiveness to DMXAA” on hSTING^group2. Besides, the TΔS result at hSTING^R232/V162 is given as “+7.93 Kcal/mol”; at hSTING^H232/A162, “+7.99 Kcal/mol”; at hSTING^H232/V162 it was “+7.84 Kcal/mol”. Also, the ΔG on hSTING^R232/V162 is -7.61 kcal/mol; on hSTING^H232/V162, -7.45 kcal/mol. Moreover, the ΔH entry was “+0.32 Kcal/mol” at hSTING^R232/V162, “+0.44 Kcal/mol” at hSTING^H232/A162 and “+0.39 Kcal/mol” at hSTING^H232/V162. In addition, the figures for the “DMXAA-mediated IFN-β induction” value at hSTING G166S, on hSTING Q266L and at hSTING Q266V were “no effects”, “less pronounced gain” and “no effects”, respectively. In addition, the “IFN luciferase reporter response to DMXAA” value in assay [3] is listed as “enabled recognition of DMXAA”. Moreover, the “up-regulation of IFN-β mRNA after DMXAA treatment” value at wt hSTING is listed as “did not induce the up-regulation”. Also, the “IFN-β induction activity (luciferase), DMXAA” value on hSTING^G230I [4] was “almost identical IFN-β induction as hSTING^group2”.
